In patent publication US11147272B2, “Pyridone compounds and agricultural and horticultural fungicides comprising the same as active ingredients” (MITSUI CHEMICALS AGRO, INC., priority 2017, dated 2021):

How the values were obtained:
[1] = test system: Botrytis cinerea; assay: Test Example B: Gray mold on tomato; settings: Botrytis cinerea, in Solanum lycopersicum, topical, read-out: Test B control value class
[2] = test system: Colletotrichum orbiculare; assay: Test Example H: Anthracnose on cucumber; settings: Colletotrichum orbiculare, in Cucumis sativus, topical, read-out: Test H control value class
[3] = test system: Blumeria graminis f. sp. hordei; assay: Test Example D: Powdery mildew on barley; settings: Blumeria graminis, in Hordeum vulgare, topical, read-out: Test D control value class
[4] = test system: Magnaporthe grisea; assay: whole plant or invertebrate; assay type: in vivo; settings: Pyricularia oryzae, in Oryza sativa, read-out: Test A control value class
[5] = test system: Phytophthora infestans; assay: whole plant or invertebrate; assay type: in vivo; settings: Phytophthora infestans, in Solanum lycopersicum, topical, read-out: Test F control value class
[6] = test system: Puccinia recondita; assay: Test Example E: Brown rust on wheat; assay type: in vivo; settings: Puccinia recondita, topical; Brown rust on wheat; class of control value; read-out: Test E control value class
[7] = test system: Alternaia brassicicola; assay: Test Example C: Alternaria sooty spot on cabbage; assay type: in vivo; settings: Brassica oleracea, topical; Alternaria sooty spot on cabbage; class of control value; read-out: Test C control value class
From the text: Seeds of a test plant (cabbage variety: Shikidori) were planted and cultivated until the cotyledons extended.
<Control Value> Control value=100{1−(n/3)}

[8] = test system: Plasmopara viticola; assay: Test Example G: Downy mildew on vine; settings: Plasmopara viticola, topical, read-out: Test G control value class

Row | Compound | pest or weed control at 250 µg/mL [1] | pest or weed control at 250 ppm [2] | pest or weed control at 250 µg/mL [3] | pest or weed control at 250 µg/mL [4] | pest or weed control at 250 µg/mL [5] | pest or weed control at 250 µg/mL [6] | pest or weed control at 250 µg/mL [7] | pest or weed control at 250 ppm [8]
1 | CCn1c(-c2c(F)cc(F)cc2F)c(C(C)C)cc(Cl)c1=O [Compound No. 8, 3-chloro-1-ethyl-5-isopropyl-6-(2,4,6-trifluorophenyl)pyridin-2(1H)-one] | > 50% | > 50% | > 50% | > 50% | < 50% | > 50% | > 50% | < 50%
2 | CCn1c(-c2c(F)cc(OC)cc2F)c(C(C)C)ccc1=O [Compound No. 10, 6-(2,6-Difluoro-4-methoxyphenyl)-1-ethyl-5-isopropylpyridin-2(1H)-one] | > 50% | > 50% | > 50% | > 50% | < 50% | > 50% | > 50% | < 50%
3 | CCn1c(-c2c(F)cc(OC)cc2F)c(C(C)C)cc(Cl)c1=O [Compound No. 11, 3-Chloro-6-(2,6-difluoro-4-methoxyphenyl)-1-ethyl-5-isopropylpyridin-2(1H)-one] | > 50% | > 50% | > 50% | > 50% | < 50% | > 50% | > 50% | < 50%
4 | CCn1c(-c2c(F)cccc2F)c(C=O)cc(Cl)c1=O [Compound No. 20, 5-chloro-2-(2,6-difluorophenyl)-1-ethyl-6-oxo-1,6-dihydropyridine-3-carb aldehyde] | > 50% | < 50% | < 50% | > 50% | < 50% | > 50% | < 50% | > 50%
5 | CCn1c(-c2c(F)cccc2F)c(C(Br)Br)cc(Cl)c1=O [Compound No. 21, 3-chloro-5-(dibromomethyl)-6-(2,6-difluorophenyl)-1-ethylpyridin-2(1H)-one] | > 50% | < 50% | > 50% | < 50% | < 50% | > 50% | < 50% | > 50%
6 | CCC(O)c1cc(Cl)c(=O)n(CC)c1-c1c(F)cccc1F (stereo not shown) [Compound No. 24, 3-chloro-6-(2,6-difluorophenyl)-1-ethyl-5-(1-hydroxypropyl)pyridin-2(1H)-one] | > 50% | > 50% | > 50% | > 50% | < 50% | > 50% | > 50% | < 50%
7 | CCC(OC)c1cc(Cl)c(=O)n(CC)c1-c1c(F)cccc1F (stereo not shown) [Compound No. 25, 3-chloro-6-(2,6-difluorophenyl)-1-ethyl-5-(1-methoxypropyl)pyridin-2(1H)-one] | > 50% | > 50% | > 50% | > 50% | < 50% | > 50% | > 50% | > 50%
8 | CCC(=O)c1cc(Cl)c(=O)n(CC)c1-c1c(F)cccc1F [Compound No. 26, 3-chloro-6-(2,6-difluorophenyl)-1-ethyl-5-propionylpyridin-2(1H)-one] | > 50% | > 50% | > 50% | > 50% | < 50% | > 50% | > 50% | > 50%
